Source: patent publication US20240059700A1, “NOVEL DIACYLGLYCERIDE O-ACYLTRANSFERASE 2 INHIBITORS” (Merck Sharp & Dohme LLC, priority 2020, published 2024)
pIC50: −log10 of the molar value.

target: human DGAT2 (hDGAT2) (Homo sapiens (Human), UniProt Q96PD7); test: DGAT2 Enzymatic Activity Assay; type: biochemical; conditions: membrane prep of Sf-9 insect cells expressing hDGAT2; 13C18-triolein product by LC/MS/MS
Experimental: Sf-9 insect cells were maintained in Grace's insect cell culture medium with 10% heated-inactivated fetal bovine serum, 1% Pluronic F-68 and 0.14 μg/ml Kanamycine sulfate at 27° C. in a shaker incubator. After infection with untagged baculovirus expressing human DGAT2 (hDGAT2) at multiplicity of infection (MOI) 3 for 48 hours, cells were harvested. Cell pellets were suspended in buffer containing 10 mM Tris-HCl pH 7.5, 1 mM EDTA, 250 mM sucrose and Complete Protease Inhibitor Cocktail (Sigma Aldrich), and sonicated on ice. Cell debris were removed by centrifugation at 2000×g for 15 minutes. Membrane fractions were isolated by ultracentrifugation (100,000×g), resuspended in the same buffer, and frozen (−80° C.) for later use. The protein concentration was determined with the Pierce™ BCA Protein Assay Kit (Thermo Fisher Scientific). Expression of protein levels was analyzed by immunoblotting with rabbit anti-DGAT2 antibody (Abcam, ab102831) and donkey anti-rabbit IgG H&L Alexa Fluor® 647 (Abcam, ab150075) followed by detection using Typhoon FLA9000 (GE Healthcare).
LC/MS/MS analyses were performed using Thermal Fisher's LX4-TSQ Vantage system. This system consists of an Agilent binary high-performance liquid chromatography (HPLC) pumps and a TSQ Vantage triple quadrupole MS/MS instrument. For each sample, 2 μL samples from the top organic layer of in-plate liquid-liquid extraction were injected onto a Thermo Betabasic C4 column (2.1 mm×20 mm, 5 μm particle size). The samples were then eluted using the following conditions; mobile phase: Isopropanol: acetonitrile/10 mM ammonium formate=50/35/15 (v/v/v), flow rate: 0.8 mL/min, temperature: 25° C. Data was acquired in positive mode using a heated electrospray ionization (HESI) interface. The operational parameters for the TSQ Vantage MS/MS instrument were a spray voltage of 3000 V, capillary temperature of 280° C., vaporizer temperature 400° C., sheath gas 45 arbitrary unit, Aux gas 10 arbitrary units, S-lens 165 and collision gas 1.0 mTorr. […] (SRM) chromatograms of ^13C18-triolein (Q1: 920.8>Q3:621.3) and internal standard ^13C21-triolein (Q1: 923.8>Q3:617.3) were collected for 33 sec. The peak area was integrated by Xcalibur Quan software. The ratio between the ^13C18 triolein generated in the reaction and spiked in internal standard ^13C21-triolein was used to generate percentage inhibition and IC50 values. Compound percentage inhibition was calculated by the following formula: Inhibition %=1−[(compound response−low control)/(high control−low control)]×100%. Potent compounds were titrated and IC50 were calculated by 4 parameter sigmoidal curve fitting formula.
DGAT2 activity was determined by measuring the amount of enzymatic product ^13C18-triolein (^13C-1,2,3-Tri(cis-9-octadecenoyl)glycerol) using the membrane prep mentioned above. The assay was carried out in ABgene 384-well assay plates in a final volume of 25 μL at rt. The assay mixture contained the following: assay buffer (100 mM Tris·Cl, pH 7.0, 20 mM MgCl2, 5% ethanol), 25 μM of diolein, 5 μM of ^13C oleoyl-CoA and 8 ng/μL of DGAT2 membrane.

Sequence of human DGAT2 (hDGAT2) (Q96PD7 whole entry): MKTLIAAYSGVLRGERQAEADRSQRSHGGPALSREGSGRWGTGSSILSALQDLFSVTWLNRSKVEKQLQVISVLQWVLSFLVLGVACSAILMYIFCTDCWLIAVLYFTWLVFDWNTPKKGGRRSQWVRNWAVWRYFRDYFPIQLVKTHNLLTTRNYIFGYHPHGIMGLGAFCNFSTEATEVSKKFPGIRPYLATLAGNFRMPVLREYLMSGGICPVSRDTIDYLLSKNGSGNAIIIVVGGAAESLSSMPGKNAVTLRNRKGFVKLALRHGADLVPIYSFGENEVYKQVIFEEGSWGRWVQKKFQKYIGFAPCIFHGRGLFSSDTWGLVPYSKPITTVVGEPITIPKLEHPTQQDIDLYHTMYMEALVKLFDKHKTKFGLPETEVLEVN

Compound | pIC50
CC(O)C(C)NC(=O)c1cnc2c(-c3cccc(OC(F)F)c3)nn(C(C)C)c2c1 (centres unmarked) [Example 45a, 3-(3-(difluoromethoxy)phenyl)-N-(3-hydroxybutan-2-yl)-1-isopropyl-1H-pyrazolo[4,3-b]pyridme-6-carboxamide] | 7.64
CC(C)n1nc(-c2cccc(OC(F)F)c2)c2ncc(C(=O)NC3(CO)CCC3)cc21 [Example 49, 3-(3-(difluoromethoxy)phenyl)-N-(1-(hydroxymethyl)cyclobutyl)-1-isopropyl-1H-pyrazolo[4,3-b]pyridine-6-carboxamide] | 8.21
CC(C)n1nc(-c2cccc(OC(F)F)c2)c2ncc(C(=O)NC3(CO)CC(F)(F)C3)cc21 [Example 51, N-(3,3-difluoro-1-(hydroxymethyl)cyclobutyl)-3-(3-(difluoromethoxy)phenyl)-1-isopropyl-1H-pyrazolo[4,3-b]pyridine-6-carboxamide] | 7.77
CC(C)[C@H](NC(=O)c1cnc2c(-c3cncc(OC(F)F)c3)nn(C(C)C)c2c1)[C@H](C)O [Example 54, 3-(5-(difluoromethoxy)pyridin-3-yl)-N-((2S,3S)-2-hydroxy-4-methylpentan-3-yl)-1-isopropyl-1H-pyrazolo[4,3-b]pyridine-6-carboxamide] | 7.89
CC(C)n1nc(-c2cc(OC(F)F)ccc2F)c2ncc(C(=O)NC(C)(C)CN(C)C)cc21 [Example 55, 3-(5-(difluoromethoxy)-2-fluorophenyl)-N-(1-(dimethylamino)-2-methylpropan-2-yl)-1-isopropyl-1H-pyrazolo[4,3-b]pyridine-6-carboxamide] | 6.67
Cc1ncc(OC(F)F)cc1-c1nn(C(C)C)c2cc(C(=O)N[C@]3(C)CS(=O)(=O)C[C@H]3O)cnc12 [Example 56, 3-(5-(difluoromethoxy)-2-methylpyridin-3-yl)-N-((3S,4S)-4-hydroxy-3-methyl-1,1-dioxidotetrahydrothiophen-3-yl)-1-isopropyl-1H-pyrazolo[4,3-b]pyridine-6-carboxamide] | 6.68
CCOc1cc(-c2nn(C(C)C)c3cc(C(=O)N[C@@]4(C)CCC[C@H]4O)cnc23)c(F)cn1 [Example 57, 3-(2-ethoxy-5-fluoropyridin-4-yl)-N-((1S,2R)-2-hydroxy-1-methylcyclopentyl)-1-isopropyl-1H-pyrazolo[4,3-b]pyridine-6-carboxamide] | 7.82
CCN1CCN(C(=O)c2cnc3c(-c4cncc(OC(F)F)c4)nn(C(C)C)c3c2)CC1 [Example 58, (3-(5-(difluoromethoxy)pyridin-3-yl)-1-isopropyl-1H-pyrazolo[4,3-b]pyridin-6-yl)(4-ethylpiperazin-1-yl)methanone] | < 6.00
CC1(NC(=O)c2cnc3c(-c4cccc(OC(F)F)c4)nn(C4COC4)c3c2)CS(=O)(=O)C1 [Example 61, 3-[3-(difluoromethoxy)phenyl]-N-(3-methyl-1,1-dioxo-thietan-3-yl)-1-(oxetan-3-yl)pyrazolo[4,3-b]pyridine-6-carboxamide] | 7.19
CC1(NC(=O)c2cnc3c(-c4cccc(OC(F)F)c4)nn(C4CCOCC4)c3c2)CS(=O)(=O)C1 [Example 63, 3-(3-(difluoromethoxy)phenyl)-N-(3-methyl-1,1-dioxidothietan-3-yl)-1-(tetrahydro-2H-pyran-4-yl)-1H-pyrazolo[4,3-b]pyridine-6-carboxamide] | 7.74

Results, then the compound that gave them:

pIC50 | Compound
6.75 | CC1(NC(=O)c2cnc3c(-c4cncc(OC(F)F)c4)nn(C4CCOCC4)c3c2)CS(=O)(=O)C1 [Example 64, 3-[5-(difluoromethoxy)-3-pyridyl]-N-(3-methyl-1,1-dioxo-thietan-3-yl)-1-tetrahydropyran-4-yl-pyrazolo[4,3-b]pyridine-6-carboxamide]
5.00 | Cn1nccc1-c1nn(C2CCOCC2)c2cc(C(=O)N[C@@]3(C)CCS(=O)(=O)C3)cnc12 [Example 65, N-[(3S)-3-methyl-1,1-dioxo-thiolan-3-yl]-3-(2-methylpyrazol-3-yl)-1-tetrahydropyran-4-yl-pyrazolo[4,3-b]pyridine-6-carboxamide]
7.23 | CC1(NC(=O)c2cnc3c(-c4cccc(OC(F)F)c4)nn(CC4CCOCC4)c3c2)CS(=O)(=O)C1 [Example 69, 3-(3-(difluoromethoxy)phenyl)-N-(3-methyl-1,1-dioxidothietan-3-yl)-1-((tetrahydro-2H-pyran-4-yl)methyl)-1H-pyrazolo[4,3-b]pyridine-6-carboxamide]
7.40 | CC1(NC(=O)c2cnc3c(-c4cccc(OC(F)F)c4)nn(Cc4ccc(F)cc4)c3c2)CS(=O)(=O)C1 [Example 70, 3-(3-(difluoromethoxy)phenyl)-1-(4-fluorobenzyl)-N-(3-methyl-1,1-dioxidothietan-3-yl)-1H-pyrazolo[4,3-b]pyridine-6-carboxamide]
7.02 | CC1(NC(=O)c2cnc3c(-c4cccc(OC(F)F)c4)nn(C4CCOCC4C(F)(F)F)c3c2)CS(=O)(=O)C1 (centres unmarked) [Example 71, 3-(3-(difluoromethoxy)phenyl)-N-(3-methyl-1,1-dioxidothietan-3-yl)-1-(3-(trifluoromethyl)tetrahydro-2H-pyran-4-yl)-1H-pyrazolo[4,3-b]pyridine-6-carboxamide]
6.20 | CC(C)n1nc(-c2cccc(OC(F)F)c2)c2ncc(C(=O)NC3(C(C)(C)O)CCOCC3)cc21 [Example 72, 3-(3-(difluoromethoxy)phenyl)-N-(4-(2-hydroxypropan-2-yl)tetrahydro-2H-pyran-4-yl)-1-isopropyl-1H-pyrazolo[4,3-b]pyridine-6-carboxamide]
7.19 | CC(C)n1nc(-c2cccc(OC(F)F)c2)c2ncc(C(=O)NC3(CO)CCOCC3)cc21 [Example 74, 3-(3-(difluoromethoxy)phenyl)-N-(4-(hydroxymethyl)tetrahydro-2H-pyran-4-yl)-1-isopropyl-1H-pyrazolo[4,3-b]pyridine-6-carboxamide]
5.00 | C[C@]1(NC(=O)c2cc3c(cn2)c(-c2cncc(OC(F)F)c2)nn3C2CCOCC2)CCS(=O)(=O)C1 [Example 79, (S)-3-(5-(difluoromethoxy)pyridin-3-yl)-N-(3-methyl-1,1-dioxidotetrahydrothiophen-3-yl)-1-(tetrahydro-2H-pyran-4-yl)-1H-pyrazolo[4,3-c]pyridine-6-carboxamide]
6.06 | C[C@]1(NC(=O)c2cnc3c(-c4cncc(OC(F)F)c4)cn(C4CCOCC4)c3c2)CCS(=O)(=O)C1 [Example 80, (S)-3-(5-(difluoromethoxy)pyridin-3-yl)-N-(3-methyl-1,1-dioxidotetrahydrothiophen-3-yl)-1-(tetrahydro-2H-pyran-4-yl)-1H-pyrrolo[3,2-b]pyridine-6-carboxamide]
6.68 | C[C@]1(NC(=O)c2cnc3c(-c4cccc(OC(F)F)c4)cn(C4CCOCC4)c3c2)CCS(=O)(=O)C1 [Example 81, (S)-3-(3-(difluoromethoxy)phenyl)-N-(3-methyl-1,1-dioxidotetrahydrothiophen-3-yl)-1-(tetrahydro-2H-pyran-4-yl)-1H-pyrrolo[3,2-b]pyridine-6-carboxamide]
6.21 | C[C@]1(NC(=O)c2cc3c(cn2)c(-c2cccc(OC(F)F)c2)cn3C2CCOCC2)CCS(=O)(=O)C1 [Example 82, (S)-3-(3-(difluoromethoxy)phenyl)-N-(3-methyl-1,1-dioxidotetrahydrothiophen-3-yl)-1-(tetrahydro-2H-pyran-4-yl)-1H-pyrrolo[3,2-c]pyridine-6-carboxamide]
5.26 | Cn1nccc1-c1cn(C2CCOCC2)c2cc(C(=O)N[C@@]3(C)CCS(=O)(=O)C3)c(F)cc12 [Example 83]
7.89 | Cc1cc(C(=O)N[C@@]2(C)CCS(=O)(=O)C2)cc2c1c(-c1cccc(OC(F)F)c1)nn2C1CCOCC1 [Example 84, (S)-3-(3-(difluoromethoxy)phenyl)-4-methyl-N-(3-methyl-1,1-dioxidotetrahydrothiophen-3-yl)-1-(tetrahydro-2H-pyran-4-yl)-1H-indazole-6-carboxamide]
